# Tests used:
# PC12 cells [1] = experiment: DCFDA fluorescence assay of intracellular ROS induced by 6-OHDA; assay type: cell-based, rat; conditions: 20 μM, 24 h pretreatment, then 75 μM 6-OHDA 1 h
# Description: Experimental detection of reactive oxygen species (ROS) produced by 6-OHDA was carried out by DCFDA assay. 6-OHDA, a well known neurotoxin, produces oxidative stress similar to what is observed in PD and the mechanism of neurotoxicity of 6-OHDA takes place via its auto-oxidation and subsequent generation of hydrogen peroxide. DCFDA is a non-fluorogenic dye but in the presence of ROS, it is oxidized to produce DCF which produces florescence. We have previously shown that 6-OHDA causes cell death in a dose-dependent manner. We chose 75 μM 6-OHDA as we have shown that this dose induces 40-50% cell death. […] However, the test compounds could dose dependently decrease the production of ROS induced by 6-OHDA (75 μM) in PC12 cells. In this regard, highest dose of all the three compounds was the most efficacious in producing significant antioxidant effect.
# (§1) PC12 cells (ATCC CRL1721.1, Manassas, Va., USA), a rat adrenal pheochromocytoma cell line, were cultured in T-75 flasks (Greiner Bio One, Frickenhausen, Germany) and maintained in RPMI 1640 medium supplemented with 10% heat inactivated horse serum, 5% fetal bovine sérum, 100 U/ml penicillin, and 100 μg/mL streptomycin at 37° C. in 95% air/5% CO2. […]
# PC12 cells were plated at 30,000 cells/well density in 100 μL media in 96-well black plates and incubated at 37° C. under 5% CO2 atmosphere for 24 h. […] After incubation for 1 h, the fluorescence was measured using spectrophotometer fluorescence generated microplate reader (Biotek Epoch, Winooski, Vt., USA) at excitation 497 nm and emission at 527 nm. […] The specific fluorescence emission was calculated after subtraction of the DCFDA untreated control cells from the DCFDA treated cells for both the background and 1 h treatment conditions. This was followed by the division of the 1 h treatment data by the background activity which was determined from vials before treatment with 6-OHDA, to derive the final data point.
# cloned rat D3 receptors = cloned rat D3 receptors (Rattus norvegicus (Rat), UniProt P19020); experiment: [3H]spiroperidol competition binding, rat D3 receptors in HEK-293 cells; conditions: rat D3 in HEK-293 cells; values of Table 3
# Description: A well established radioligand competition assay was carried out to evaluate binding affinity of the test compounds and were compared with that of the reference agent (S)-5-OH-DPAT (Table 3). Binding affinity to rat DA D2 and D3 receptors expressed in HEK-293 cells was determined as described by us previously. […] This indicated highest tolerance of the 4-substituted carbazole derivative for interaction with the D2 and D3 receptors.
# All these procedures were described by us previously.
# PC12 cells [2] = experiment: MTT cell viability, compounds alone; assay type: cell-based, rat
# Description: To investigate the neuroprotection property of the selected target molecules (−)-91b, (−)-95a and (−)-95c against 6-OHDA-induced cytotoxicity, we used dopaminergic rat adrenal Pheochromocytoma PC12 cells. As reported above, treatment of PC12 cells with 6-OHDA at 75 μM for 24 h produced ˜50% loss in cells viability and this concentration was used in subsequent experiments. […] However, (−)-95a produced some incremental toxicity starting at 20 μM dose (FIG. 4B). The potential neuroprotective effects of (−)-91b, (−)-95a and (−)-95c against 6-OHDA-induced toxicity were evaluated next. […] At those concentration both drugs increased cell survival by ˜20% compared to 6-OHDA (75 μM) treated alone (FIGS. 4D and 4F), indicating neuroprotective effect of these drugs. […] This could be due to the fact that the compound by itself produced toxicity to the cells at doses ≥20 μM and the presence of 6-OHDA enhanced the toxicity (FIG. 4B).
# as §1, with “serum,” for “sérum,”, “CO2. Stock solutions of (−)-91b, (−)-95a, (−)-95c, and 6-hydroxydopamine (6-OHDA) were prepared in dimethylsulfoxide (DMSO) and aliquots were stored at −20° C. and −80° C., respectively.” for “CO2.”
# PC12 cells were plated at 17000 cells/well density in 100 μL of media in 96-well plates and incubated at 37° C. under 5% CO2 atmosphere for 24 h. […] The absorbance was measured on a microplate reader (Biotek Epoch, Winooski, Vt., USA) at 570 nm with background correction performed at 690 nm. Data from at least three experiments were analyzed using GraphPad software (version 6, San Diego, Calif., USA). Cell viability was defined as […] compared to untreated controls.
# cloned rat D3 receptors, sequence (P19020 whole entry): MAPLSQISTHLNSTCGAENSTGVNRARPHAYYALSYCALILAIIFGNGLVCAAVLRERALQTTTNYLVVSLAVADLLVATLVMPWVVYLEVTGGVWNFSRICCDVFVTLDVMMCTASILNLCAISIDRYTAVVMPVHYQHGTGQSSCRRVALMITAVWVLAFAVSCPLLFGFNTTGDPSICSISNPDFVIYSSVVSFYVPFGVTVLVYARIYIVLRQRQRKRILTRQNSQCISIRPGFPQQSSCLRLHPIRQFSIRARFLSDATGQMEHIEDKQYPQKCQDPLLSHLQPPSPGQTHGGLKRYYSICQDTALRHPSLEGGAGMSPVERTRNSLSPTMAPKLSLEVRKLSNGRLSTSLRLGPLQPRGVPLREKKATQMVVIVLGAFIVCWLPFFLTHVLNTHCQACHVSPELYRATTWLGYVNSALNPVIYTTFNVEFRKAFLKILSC
SMILES,reduction in ROS (PC12 cells [1]) [%],Ki (cloned rat D3 receptors) [nM],"cell viability, compound alone (PC12 cells [2]; 0.01-30 μM, compared to untreated controls)",dose at which compound alone produced toxicity (PC12 cells [2]; compound alone) [µM]
"CCCN(CCN1CCN(c2ccc3[nH]c4ccccc4c3c2)CC1)[C@H]1CCc2nc(N)sc2C1 [(−)-91b, (S)—N^6-(2-(4-(9H-carbazol-3-yl)piperazin-1-yl)ethyl)-N^6-propyl-4,5,6,7-tetrahydrobenzo[d]thiazole-2,6-diamine]",76,3.8,no cells loss,–
"CCCN(CCN1CCN(c2ccc3c(c2)[nH]c2ccccc23)CC1)[C@H]1CCc2c(O)cccc2C1 [Compound (−)-95a, (S)-6-((2-(4-(9H-carbazol-2-yl)piperazin-1-yl)ethyl)(propyl)amino)-5,6,7,8-tetrahydronaphthalen-1-ol]",93,0.4,–,≥ 20
